Laboratory results from US10300067B2, “Tetrahydropyridopyrimidine compound or salt thereof” (TAIHO PHARMACEUTICAL CO., LTD., priority 2014, dated 2019).
Like-named read-outs stand apart in the source and are kept apart here.

Legend:
[1] = test system: Human prostate cancer cells LNCaP; assay: Androgen-dependent inhibitory activity on proliferation of prostate cancer cells; assay type: cell-based; details: read-out: GI50 value
Method: Human prostate cancer cells LNCaP (Non-Patent Literature 5) having […] androgen receptor gene were seeded in a clear bottom 96 well microplate (BD) at 4.0×10^3/well with phenol red free RPMI1640 containing 5% DCC-FBS (hereinbelow, the medium is referred to as an evaluation medium), and then cultured overnight. The culture was added with the evaluation medium containing DHT (final concentration of DHT: 10 nmol/L) or the evaluation medium containing the compound of Examples or the compound of Comparative Examples (final concentration of the compound of Examples or the compound of Comparative Examples: 10, 30, 100, 300, 1000, 3000, 10000, or 30000 nmol/L), followed by culture for 72 hours. Then, the number of viable cells was counted. The number of viable cells was measured by using Cell Counting Kit-8 (DOJINDO LABORATORIES).

[2] = test system: AR positive human prostate cancer cells VCaP; assay: Agonist activity for AR (cell proliferation rate of VCaP cells); assay type: cell-based; details: 72 hours, 2 to 10000 nmol/L, more than 10% at any concentration = agonist activity for AR
Procedure, shortened: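 VCaP cells seeded at 1.5×10^4/well in phenol-red-free RPMI1640 with 5% DCC-FBS, then exposed 72 h to compound at 2–10000 nmol/L (9 concentrations). Viable cells counted by CellTiter-Glo; proliferation rate (%) relative to medium-only control, agonist activity called when >10% at any concentration.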

androgen receptor = androgen receptor (Homo sapiens (Human), UniProt P10275, T878A); assay: Activity of reducing expression level of androgen receptor (Western blotting of LNCaP cell lysate); assay type: cell-based; details: 48 hours
Procedure, shortened: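 LNCaP prostate cancer cells (AR T878A) in phenol red-free RPMI1640 with 5% FBS treated with compound at final 10000 nmol/L for 48 h. Cell lysates analysed by Western blot with anti-AR antibody; band quantified by chemiluminescence.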

human androgen receptor = human androgen receptor (Homo sapiens (Human), UniProt P10275); assay: Antagonist activity for AR (pMMTV-luc reporter transcription activity in transfected COS-7 cells, DHT 1 nmol/L); assay type: cell-based; details: 50% transcription activity inhibition concentration; COS-7 cells with pMMTV-luc and pEX-hAR, DHT 1 nmol/L, 24 hours
Procedure, shortened: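 COS-7 cells co-transfected with pMMTV-luc reporter and CMV-driven human AR expression vector, cultured overnight in phenol red-free RPMI1640 with 10% charcoal-treated FBS. Antagonism measured against 1 nmol/L DHT by luciferase transcription activity.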

LNCaP-Xeno-IL-6 cells = assay: Anti-tumor activity in in vivo model of castration resistant prostate cancer; details: castrated male nude mice, oral, every day for 2 weeks
Method: From the AR positive human prostate cancer cells LNCaP, castration resistant prostate cancer cells, LNCaP-Xeno-IL-6 cells, were established based on the scientific paper (Clin Cancer Res, 2001 7:2941-8) (in the paper, the cells have been reported as LNCaP-IL-6+ cells) and used for the in vivo test. The LNCaP-Xeno-IL-6 cells were implanted subcutaneously in male nude mice, and the castration treatment was performed when the tumor volume reached about 200 mm^3. After the castration, the vehicle only (0.5% HPMC) or the compound of Examples suspended in the vehicle was orally administered to the mice every day for 2 weeks. The compound of Examples was administered such that there was no difference in an exposure amount between the compounds. After the administration for 2 weeks, the tumor volume of each mouse was recorded and the average tumor volume of the group administered with the evaluation compound relative to the average tumor volume of the group administered only with the vehicle, that is, T/C (%), was calculated based on the following formula. T/C (%)=(Average tumor volume of evaluation compound group)/(Average tumor volume of vehicle administration group)

[3] = 50% proliferation inhibition concentration, DHT 10 nmol/L, 72 hours

Sequence of androgen receptor (P10275 whole entry T878A): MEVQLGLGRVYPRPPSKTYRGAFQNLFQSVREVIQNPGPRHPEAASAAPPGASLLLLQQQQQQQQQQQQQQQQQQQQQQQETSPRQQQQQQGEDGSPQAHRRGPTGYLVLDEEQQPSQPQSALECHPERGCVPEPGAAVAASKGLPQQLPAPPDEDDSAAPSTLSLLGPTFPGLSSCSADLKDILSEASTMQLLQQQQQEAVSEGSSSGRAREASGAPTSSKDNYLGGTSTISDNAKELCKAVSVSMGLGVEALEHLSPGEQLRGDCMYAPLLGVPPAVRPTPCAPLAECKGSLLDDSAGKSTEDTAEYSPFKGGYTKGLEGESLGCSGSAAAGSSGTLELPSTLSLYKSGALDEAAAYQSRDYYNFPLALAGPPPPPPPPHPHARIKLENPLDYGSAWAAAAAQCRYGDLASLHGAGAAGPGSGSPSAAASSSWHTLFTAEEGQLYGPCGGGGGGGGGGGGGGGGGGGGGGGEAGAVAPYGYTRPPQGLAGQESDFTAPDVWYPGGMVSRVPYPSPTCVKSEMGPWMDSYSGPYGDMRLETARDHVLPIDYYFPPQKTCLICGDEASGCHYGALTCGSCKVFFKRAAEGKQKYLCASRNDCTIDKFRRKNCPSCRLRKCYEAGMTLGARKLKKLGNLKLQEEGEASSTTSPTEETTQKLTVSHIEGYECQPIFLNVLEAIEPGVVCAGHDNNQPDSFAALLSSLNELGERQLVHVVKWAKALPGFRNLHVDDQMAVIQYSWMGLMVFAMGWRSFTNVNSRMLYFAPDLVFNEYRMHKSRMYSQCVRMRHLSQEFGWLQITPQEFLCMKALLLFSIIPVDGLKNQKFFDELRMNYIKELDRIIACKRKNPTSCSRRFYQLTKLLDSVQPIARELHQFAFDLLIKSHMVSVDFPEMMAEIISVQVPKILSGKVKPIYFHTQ
Sequence of human androgen receptor (P10275 whole entry): as the sequence (P10275 whole entry T878A) above, with A878T counted along it

## CC(C)(O)c1ccc(Nc2ncnc3c2CCN(c2ccc(C#N)c(C(F)(F)F)c2)C3)nc1F [Example 5, 4-(4-((6-fluoro-5-(2-hydroxypropan-2-yl)pyridin-2-yl)amino)-5,6-dihydropyrido[3,4-d]pyrimidin-7 (8H)-yl)-2-(trifluoromethyl)benzonitrile]
[1]; [3]
  GI50: 600 nM
[2]
  Cell proliferation rate (%): −5.5%
Androgen receptor
  10 μM AR expression reducing activity: reduced (When the AR expression reducing activity is 50% or more, it is described as “reduced”)
Human androgen receptor
  IC50: 190 nM

## N#Cc1ccc(N2CCc3c(ncnc3Nc3ccc(C(=O)NCC(F)(F)F)cn3)C2)cc1C(F)(F)F [Example 11, 6-((7-(4-cyano-3-(trifluoromethyl)phenyl)-5,6,7,8,-tetrahydropyrido[3,4-d]pyrimidin-4-yl)amino)-N-(2,2,2-trifluoroethyl)nicotinamide]
[1]; [3]
  GI50: 380 nM
[2]
  Cell proliferation rate (%): 2.9%
LNCaP-Xeno-IL-6 cells; daily dose 200 mg/kg/day
  T/C (%): 47%
Androgen receptor
  10 μM AR expression reducing activity: reduced (When the AR expression reducing activity is 50% or more, it is described as “reduced”)
Human androgen receptor
  IC50: 30 nM

## N#Cc1ccc(N2CCc3c(ncnc3Nc3ncns3)C2)cc1C(F)(F)F [Example 1, 4-(4-((1,2,4-thiadiazol-5-yl)amino)-5,6-dihydropyrido[3,4-d]pyrimidin-7(8H)-yl)-2-(trifluoromethyl)benzonitrile]
[1]; [3]
  GI50: 3000 nM
[2]
  Cell proliferation rate (%): 8.7%
Androgen receptor
  10 μM AR expression reducing activity: reduced (When the AR expression reducing activity is 50% or more, it is described as “reduced”)
Human androgen receptor
  IC50: 80 nM

## CC(C)(O)c1ccc(Nc2ncnc3c2CCN(c2ccc(C#N)c(Cl)c2)C3)nc1 [Example 9, 2-chloro-4-(4-((5-(2-hydroxypropan-2-yl)pyridin-2-yl)amino)-5,6-dihydropyrido[3,4-d]pyrimidin-7 (8H)-yl)benzonitrile]
[1]; [3]
  GI50: 500 nM
[2]
  Cell proliferation rate (%): −0.7%
LNCaP-Xeno-IL-6 cells; daily dose 15 mg/kg/day
  T/C (%): 40%
Androgen receptor
  10 μM AR expression reducing activity: reduced (When the AR expression reducing activity is 50% or more, it is described as “reduced”)
Human androgen receptor
  IC50: 250 nM

## C[C@@H](NC(=O)c1ccc(Nc2ncnc3c2CCN(c2ccc(C#N)c(C(F)(F)F)c2)C3)nc1)c1nnco1 [Example 38, (R)—N-(1-(1,3,4-oxadiazol-2-yl)ethyl)-6-((7-(4-cyano-3-(trifluoromethyl)phenyl)-5,6,7,8-tetrahydropyrido[3,4-d]pyrimidin-4-yl)amino)nicotinamide]
[1]; [3]
  GI50: 1100 nM
[2]
  Cell proliferation rate (%): −2.7%
Androgen receptor
  10 μM AR expression reducing activity: reduced (When the AR expression reducing activity is 50% or more, it is described as “reduced”)
Human androgen receptor
  IC50: 560 nM

## CC(C)(O)c1ccc(Nc2ncnc3c2CCN(c2ccc(C#N)c(C(F)(F)F)c2)C3)nn1 [Example 10, 4-(4-((6-(2-hydroxypropan-2-yl)pyridazin-3-yl)amino)-5,6-dihydropyrido[3,4-d]pyrimidin-7 (8H)-yl)-2-(trifluoromethyl)benzonitrile]
[1]; [3]
  GI50: 800 nM
[2]
  Cell proliferation rate (%): 2.8%
Androgen receptor
  10 μM AR expression reducing activity: reduced (When the AR expression reducing activity is 50% or more, it is described as “reduced”)
Human androgen receptor
  IC50: 90 nM

## CC(C)Oc1ccc(Nc2ncnc3c2CCN(c2ccc(C#N)c(C(F)(F)F)c2)C3)cn1 [Example 13, 4-(4-((6-isopropoxypyridin-3-yl)amino)-5,6-dihydropyrido[3,4-d]pyrimidin-7(8H)-yl)-2-(trifluoromethyl)benzonitrile]
[1]; [3]
  GI50: 600 nM
[2]
  Cell proliferation rate (%): 2.8%
Androgen receptor
  10 μM AR expression reducing activity: reduced (When the AR expression reducing activity is 50% or more, it is described as “reduced”)
Human androgen receptor
  IC50: 110 nM

## N#Cc1ccc(N2CCc3c(ncnc3Nc3ccc(C(=O)NCc4nc(C(F)(F)F)cs4)cn3)C2)cc1C(F)(F)F [Example 36, 6-((7-(4-cyano-3-(trifluoromethyl)phenyl)-5,6,7,8-tetrahydropyrido[3,4-d]pyrimidin-4-yl)amino)-N-((4-(trifluoromethyl)thiazol-2-yl)methyl)nicotinamide]
[1]; [3]
  GI50: 300 nM
[2]
  Cell proliferation rate (%): −1.9%
Androgen receptor
  10 μM AR expression reducing activity: reduced (When the AR expression reducing activity is 50% or more, it is described as “reduced”)
Human androgen receptor
  IC50: 170 nM

## CC(C)(O)C1CCN(C(=O)c2cnc(Nc3ncnc4c3CCN(c3ccc(C#N)c(C(F)(F)F)c3)C4)o2)CC1 [Example 42, 4-(4-((5-(4-(2-hydroxypropan-2-yl)piperidin-1-carbonyl)oxazol-2-yl)amino)-5,6-dihydropyrido[3,4-d]pyrimidin-7(8H)-yl)-2-(trifluoromethyl)benzonitrile]
[1]; 72 h
  GI50: 1100 nM
[2]
  Cell proliferation rate (%): −17.2%
Androgen receptor
  10 μM AR expression reducing activity: reduced (When the AR expression reducing activity is 50% or more, it is described as “reduced”)
Human androgen receptor
  IC50: 340 nM

## N#Cc1ccc(N2CCc3c(ncnc3Nc3ncc(S(=O)(=O)N4CCCOCC4)s3)C2)cc1C(F)(F)F [Example 20, 4-(4-((5-((1,4-oxazepan-4-yl)sulfonyl)thiazol-2-yl)amino)-5,6-dihydropyrido[3,4-d]pyrimidin-7 (8H)-yl)-2-(trifluoromethyl)benzonitrile]
[1]; [3]
  GI50: 2500 nM
[2]
  Cell proliferation rate (%): 0.0%
Androgen receptor
  10 μM AR expression reducing activity: reduced (When the AR expression reducing activity is 50% or more, it is described as “reduced”)
Human androgen receptor
  IC50: 100 nM

## CC(C)(COc1ccc(Nc2ncnc3c2CCN(c2ccc(C#N)c(C(F)(F)F)c2)C3)nc1)n1cnnn1 [Example 17, 4-(4-((5-(2-methyl-2-(1H-tetrazol-1-yl)propoxy)pyridin-2-yl)amino)-5,6-dihydropyrido[3,4-d]pyrimidin-7(8H)-yl)-2-(trifluoromethyl)benzonitrile]
[1]; [3]
  GI50: 700 nM
[2]
  Cell proliferation rate (%): 0.6%
Androgen receptor
  10 μM AR expression reducing activity: reduced (When the AR expression reducing activity is 50% or more, it is described as “reduced”)
Human androgen receptor
  IC50: 170 nM

## C[C@@H](NC(=O)c1ccc(Nc2ncnc3c2CCN(c2ccc(C#N)c(C(F)(F)F)c2)C3)nc1)c1nnc(C(F)(F)F)o1 [Example 40, (R)-6-((7-(4-cyano-3-(trifluoromethyl)phenyl)-5,6,7,8-tetrahydropyrido[3,4-d]pyrimidin-4-yl)amino)-N-(1-(5-(trifluoromethyl)-1,3,4-oxadiazol-2-yl)ethyl)nicotinamide]
[1]; [3]
  GI50: 400 nM
[2]
  Cell proliferation rate (%): 0.0%
Androgen receptor
  10 μM AR expression reducing activity: reduced (When the AR expression reducing activity is 50% or more, it is described as “reduced”)
Human androgen receptor
  IC50: 260 nM
